From PubChem BioAssay (NCI)
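Step 1: Grow cells in 96-well plates. Step 2: Expose to compound for 48 hours at 5 concentrations. Step 3: Interpolate endpoints linearly; if unreached, use highest concentration. TGI: total growth inhibition.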

Tests used:
Experiment in all cases: NCI anticancer screen, dose series, 48 h
M14 melanoma = test system: M14 melanoma
OVCAR-5 ovarian = test system: OVCAR-5 ovarian
HCC-2998 colon = test system: HCC-2998 colon
SK-MEL-2 melanoma = test system: SK-MEL-2 melanoma
A549 NSCLC = test system: A549 NSCLC
DMS 273 small cell lung = test system: DMS 273 small cell lung
UACC-62 melanoma = test system: UACC-62 melanoma
M19-MEL melanoma = test system: M19-MEL melanoma
DLD-1 colon = test system: DLD-1 colon
SN12C renal = test system: SN12C renal
SK-MEL-5 melanoma = test system: SK-MEL-5 melanoma
COLO 205 colon = test system: COLO 205 colon
HL-60(TB) leukemia = test system: HL-60(TB) leukemia
IGROV1 ovarian = test system: IGROV1 ovarian
NCI-H460 lung = test system: NCI-H460 lung
LXFL 529 NSCLC = test system: LXFL 529 NSCLC
OVCAR-3 ovarian = test system: OVCAR-3 ovarian
HCT-116 colon = test system: HCT-116 colon
HCT-15 colon = test system: HCT-15 colon
SK-MEL-28 melanoma = test system: SK-MEL-28 melanoma
EKVX NSCLC = test system: EKVX NSCLC
ACHN renal = test system: ACHN renal
KM20L2 colon = test system: KM20L2 colon
RXF 393 renal = test system: RXF 393 renal
OVCAR-8 ovarian = test system: OVCAR-8 ovarian
OVCAR-4 ovarian = test system: OVCAR-4 ovarian
U251 CNS = test system: U251 CNS
SF-268 CNS = test system: SF-268 CNS
CAKI-1 renal = test system: CAKI-1 renal
SW-620 colon = test system: SW-620 colon
SNB-78 CNS = test system: SNB-78 CNS
UACC-257 melanoma = test system: UACC-257 melanoma
UO-31 renal = test system: UO-31 renal
SK-OV-3 ovarian = test system: SK-OV-3 ovarian
MOLT-4 leukemia = test system: MOLT-4 leukemia
NCI-H522 lung = test system: NCI-H522 lung
A498 renal = test system: A498 renal
CCRF-CEM leukemia = test system: CCRF-CEM leukemia
TK-10 renal = test system: TK-10 renal
KM12 colon = test system: KM12 colon
RPMI-8226 leukemia = test system: RPMI-8226 leukemia
NCI-H226 lung = test system: NCI-H226 lung
SF-539 CNS = test system: SF-539 CNS
SNB-75 CNS = test system: SNB-75 CNS
786-0 renal = test system: 786-0 renal
SNB-19 CNS = test system: SNB-19 CNS
HOP-62 NSCLC = test system: HOP-62 NSCLC
DMS 114 small cell lung = test system: DMS 114 small cell lung
NCI-H23 lung = test system: NCI-H23 lung
HOP-18 NSCLC = test system: HOP-18 NSCLC
LOX IMVI melanoma = test system: LOX IMVI melanoma
SF-295 CNS = test system: SF-295 CNS
HT29 colon = test system: HT29 colon
K-562 leukemia = test system: K-562 leukemia
MALME-3M melanoma = test system: MALME-3M melanoma
SR leukemia = test system: SR leukemia
HOP-92 NSCLC = test system: HOP-92 NSCLC

Measured: TGI

O=C1c2ccccc2C2(O)Nc3c(ccc4ccccc34)C12O (centres undefined)
not listed: SR leukemia | HOP-92 NSCLC
> 100 µM: all other assays above

COC1CC(OC)C2OC(c3ccccc3)OCC2O1 (centres undefined)
not listed: DMS 273 small cell lung | COLO 205 colon | OVCAR-4 ovarian | SF-268 CNS | CAKI-1 renal | A498 renal | RPMI-8226 leukemia | NCI-H226 lung | SNB-19 CNS | DMS 114 small cell lung | HOP-92 NSCLC
> 100 µM: all other assays above

CCOC(=O)[C@@]12C(C)=CC(=O)O[C@]1(C)C[C@H]2C#N
not listed: OVCAR-5 ovarian | CAKI-1 renal | NCI-H522 lung | SR leukemia
> 100 µM: all other assays above
